According to patent US20240294541A1, “COMPOUNDS CONSTITUTING C20-MODIFIED SALINOMYCIN DERIVATIVES, A METHOD FOR OBTAINING THE SAME, A COMPOSITION CONTAINING THE SAME AND A USE OF SAID COMPOUNDS” (FILECLO SPOLKA Z OGRANICZONA ODPOWIEDZIALNOSCIA, priority 2021, published 2024):
Like-named read-outs stand apart in the source and are kept apart here.

Legend:
Type in all cases: cell-based
[1] = tested on: NCI-H358 (human lung cancer); experiment: cells; settings: for SI NCI-H358: selectivity coefficient vs normal BALB/3T3 fibroblasts
[2] = tested on: A2780Cis (cisplatin-resistant human ovarian cancer); experiment: In vitro cytotoxicity, SRB assay, A2780Cis; settings: for IC50: Homo sapiens, A2780cis, read-out: IC50 (nM) A2780Cis
[3] = tested on: BALB/3T3 (normal mouse fibroblasts); experiment: In vitro cytotoxicity, SRB assay, normal BALB/3T3 fibroblasts
[4] = tested on: SNU-16 (human gastric cancer); experiment: cells; settings: for SI SNU-16: selectivity coefficient vs normal BALB/3T3 fibroblasts
[5] = tested on: MV-4-11 (human biphenotypic leukaemia); experiment: In vitro cytotoxicity, MTT assay, MV-4-11; settings: for IC50: Homo sapiens, MV4-11, read-out: IC50 (nM) MV4-11
[6] = tested on: MIA PaCa-2 (human pancreatic cancer); experiment: cells; settings: for SI MIA PaCa-2: selectivity coefficient vs normal BALB/3T3 fibroblasts
Hs294T (human melanoma) = experiment: cells; settings: for IC50: Hs 294T, read-out: IC50 (nM) Hs294T; for SI Hs294T: selectivity coefficient vs normal BALB/3T3 fibroblasts
[7] = tested on: PLC/PRF/5 (human liver cancer); experiment: cells; settings: for SI PLC/PRF/5: selectivity coefficient vs normal BALB/3T3 fibroblasts
[8] = Table 4, NCI-H358 human lung cancer cells, read-out: IC50 (nM) NCI-H358
[9] = Table 4, BALB/3T3 normal mouse fibroblasts, read-out: IC50 (nM) BALB3T3 normal cells
[10] = Table 4, SNU-16 human gastric cancer cells, read-out: IC50 (nM) SNU-16
[11] = Table 4, MIA PaCa-2 human pancreatic cancer cells, read-out: IC50 (nM) MIA PaCa-2
[12] = Table 4, Hs294T human melanoma cells
[13] = Table 4, PLC/PRF/5 human liver cancer cells, read-out: IC50 (nM) PLC/PRF/5

Row | Compound | IC50 [1, 8] [nM] | SI NCI-H358 ([1]; Table 4) | SI A2780Cis [2] | IC50 [2] [nM] | IC50 [3, 9] [nM] | IC50 [4, 10] [nM] | SI SNU-16 ([4]; Table 4) | SI MV4-11 [5] | IC50 [5] [nM] | IC50 [6, 11] [nM] | SI MIA PaCa-2 ([6]; Table 4) | IC50 (Hs294T (human melanoma); [12]) [nM] | SI Hs294T (Hs294T (human melanoma); Table 4) | IC50 [7, 13] [nM] | SI PLC/PRF/5 ([7]; Table 4) | further results
1 | CC[C@@H](C(=O)[C@@H](C)[C@@H](O)[C@H](C)[C@@H]1O[C@@H]([C@@H](CC)C(=O)O)CC[C@@H]1C)[C@H]1O[C@]2(C=C[C@@H](NC(=O)Nc3c(F)c(F)c(F)c(F)c3F)[C@]3(CC[C@@](C)([C@H]4CC[C@](O)(CC)[C@H](C)O4)O3)O2)[C@H](C)C[C@@H]1C [FLC-00428-1•Na] | 57.3 | 4.27 | 56.0 | 4.36 | 244 | 114 | 2.1 | 182.9 | 1.34 | 36.9 | 6.6 | 173 | 1.4 | 7.85 | 31.1 | 
2 | CC[C@@H](C(=O)[C@@H](C)[C@@H](O)[C@H](C)[C@@H]1O[C@@H]([C@@H](CC)C(=O)O)CC[C@@H]1C)[C@H]1O[C@]2(C=C[C@@H](NC(=O)OCCOC)[C@]3(CC[C@@](C)([C@H]4CC[C@](O)(CC)[C@H](C)O4)O3)O2)[C@H](C)C[C@@H]1C [FLC-00459-1•Na] | 531 | 2.01 | 30.7 | 34.7 | 1070 | 535 | 2.0 | 31.8 | 33.6 | 78.3 | 13.6 | 786 | 1.4 | 92.2 | 11.6 | 
3 | CC[C@@H](C(=O)[C@@H](C)[C@@H](O)[C@H](C)[C@@H]1O[C@@H]([C@@H](CC)C(=O)O)CC[C@@H]1C)[C@H]1O[C@]2(C=C[C@@H](NC(=O)C(=O)NCC3CC3)[C@]3(CC[C@@](C)([C@H]4CC[C@](O)(CC)[C@H](C)O4)O3)O2)[C@H](C)C[C@@H]1C [FLC-00442-1•Na] | 340 | 2.22 | 32.3 | 23.3 | 754 | 1120 | 0.7 | 38.9 | 19.4 | 102 | 7.4 | 1710 | 0.4 | 53.9 | 14.0 | 
4 | CC[C@@H](C(=O)[C@@H](C)[C@@H](O)[C@H](C)[C@@H]1O[C@@H]([C@@H](CC)C(=O)O)CC[C@@H]1C)[C@H]1O[C@]2(C=C[C@@H](NC(=O)OCC(F)(F)F)[C@]3(CC[C@@](C)([C@H]4CC[C@](O)(CC)[C@H](C)O4)O3)O2)[C@H](C)C[C@@H]1C [FLC-00395-1•Na] |  | 0.65 | 43.8 | 1.78 |  |  | 0.8 | 177.2 | 0.44 |  | 2.4 |  | 1.6 |  | 2.1 | IC50 ([1]; Homo sapiens, NCI-H358, read-out: IC50 (nM) NCI-H358): 121 nM; IC50 ([3]; Mus musculus, BALB/3T3, read-out: IC50 (nM) BALB3T3 normal cells): 78 nM; IC50 ([4]; Homo sapiens, SNU-16, read-out: IC50 (nM) SNU-16): 104 nM; IC50 ([6]; Homo sapiens, MIA PaCa-2, read-out: IC50 (nM) MIA PaCa-2): 33.1 nM; IC50 (Hs294T (human melanoma); Homo sapiens): 47.3 nM; IC50 ([7]; Homo sapiens, PLC-PRF-5, read-out: IC50 (nM) PLC/PRF/5): 37.5 nM
5 | CC[C@@H](C(=O)[C@@H](C)[C@@H](O)[C@H](C)[C@@H]1O[C@@H]([C@@H](CC)C(=O)O)CC[C@@H]1C)[C@H]1O[C@]2(C=C[C@@H](NC(=O)Nc3cccc(C(F)(F)F)c3)[C@]3(CC[C@@](C)([C@H]4CC[C@](O)(CC)[C@H](C)O4)O3)O2)[C@H](C)C[C@@H]1C [FLC-00385-1] | 36.2 | 0.60 | ≈219.0 | < 0.1 | 21.9 | 20.9 | 1.0 | 125.5 | 0.17 | 5.93 | 3.7 | 162 | 0.1 | 0.55 | 39.7 | 
6 | CC[C@@H](C(=O)[C@@H](C)[C@@H](O)[C@H](C)[C@@H]1O[C@@H]([C@@H](CC)C(=O)O)CC[C@@H]1C)[C@H]1O[C@]2(C=C[C@@H](NC(=O)c3ccccc3Cl)[C@]3(CC[C@@](C)([C@H]4CC[C@](O)(CC)[C@H](C)O4)O3)O2)[C@H](C)C[C@@H]1C [FLC-00462-1•Na] | 397 | 1.39 | 24.5 | 22.5 | 552 | 339 | 1.6 | 40.4 | 13.7 | 52 | 10.6 | 1810 | 0.3 | 63.8 | 8.6 | 
7 | CC[C@@H](C(=O)[C@@H](C)[C@@H](O)[C@H](C)[C@@H]1O[C@@H]([C@@H](CC)C(=O)O)CC[C@@H]1C)[C@H]1O[C@]2(C=C[C@@H](NC(=O)OCCOc3ccccc3)[C@]3(CC[C@@](C)([C@H]4CC[C@](O)(CC)[C@H](C)O4)O3)O2)[C@H](C)C[C@@H]1C [FLC-00460-1•Na] | 282 | 0.33 | 94.4 | 0.98 | 92.8 | 130 | 0.7 | 50.0 | 1.86 | 13.6 | 6.8 | 309 | 0.3 | 17.6 | 5.3 | 
8 | CC[C@@H](C(=O)[C@@H](C)[C@@H](O)[C@H](C)[C@@H]1O[C@@H]([C@@H](CC)C(=O)O)CC[C@@H]1C)[C@H]1O[C@]2(C=C[C@@H](NC(N)=O)[C@]3(CC[C@@](C)([C@H]4CC[C@](O)(CC)[C@H](C)O4)O3)O2)[C@H](C)C[C@@H]1C [FLC-00391-1] | 5150 | 0.69 | 33.0 | 108 | 3570 | 1330 | 2.7 | 10.2 | 349 | 3090 | 1.2 | 5870 | 0.6 | 584 | 6.1 | 
9 | CC[C@@H](C(=O)[C@@H](C)[C@@H](O)[C@H](C)[C@@H]1O[C@@H]([C@@H](CC)C(=O)O)CC[C@@H]1C)[C@H]1O[C@]2(C=C[C@@H](NC(=O)OCCOCc3ccccc3)[C@]3(CC[C@@](C)([C@H]4CC[C@](O)(CC)[C@H](C)O4)O3)O2)[C@H](C)C[C@@H]1C [FLC-00451-1•Na] | 307 | 0.67 | 96.0 | 2.13 | 204 | 126 | 1.6 | 127.9 | 1.6 | 14.7 | 13.9 | 542 | 0.4 | 42 | 4.9 | 
10 | CC[C@@H](C(=O)[C@@H](C)[C@@H](O)[C@H](C)[C@@H]1O[C@@H]([C@@H](CC)C(=O)O)CC[C@@H]1C)[C@H]1O[C@]2(C=C[C@@H](NC(=O)OCCCCCCCl)[C@]3(CC[C@@](C)([C@H]4CC[C@](O)(CC)[C@H](C)O4)O3)O2)[C@H](C)C[C@@H]1C [FLC-00444-1•Na] | 53.7 | 2.75 | 98.9 | 1.5 | 148 | 105 | 1.4 | 98.9 | 1.5 | 21.3 | 6.9 | 627 | 0.2 | 4 | 36.9 | 
11 | CC[C@@H](C(=O)[C@@H](C)[C@@H](O)[C@H](C)[C@@H]1O[C@@H]([C@@H](CC)C(=O)O)CC[C@@H]1C)[C@H]1O[C@]2(C=C[C@@H](NC(=O)OC(CCl)CCl)[C@]3(CC[C@@](C)([C@H]4CC[C@](O)(CC)[C@H](C)O4)O3)O2)[C@H](C)C[C@@H]1C [FLC-00440-1•Na] | 60.2 | 1.91 | 26.1 | 4.41 | 115 | 400 | 0.3 | 32.6 | 3.52 | 43.6 | 2.6 | 130 | 0.9 | 9.5 | 12.1 | 
12 | CC[C@@H](C(=O)[C@@H](C)[C@@H](O)[C@H](C)[C@@H]1O[C@@H]([C@@H](CC)C(=O)O)CC[C@@H]1C)[C@H]1O[C@]2(C=C[C@@H](NC(=O)C(=O)NC3CC3)[C@]3(CC[C@@](C)([C@H]4CC[C@](O)(CC)[C@H](C)O4)O3)O2)[C@H](C)C[C@@H]1C [FLC-00441-1•Na] | 930 | 1.21 | 25.7 | 43.8 | 1120 | 2600 | 0.4 | 42.5 | 26.5 | 373 | 3.0 | 969 | 1.2 | 208 | 5.4 | 
